Experimental data: paper PMC4745898 (Science signaling, 2015)

Target: TRPA1 (Rattus norvegicus, UniProt Q6RI86)
Assay: TIRF Ca2+ imaging of TRPA1 sparklets in cerebral artery endothelial cells
Format: cell-based

Chain of TRPA1 (Q6RI86 whole entry): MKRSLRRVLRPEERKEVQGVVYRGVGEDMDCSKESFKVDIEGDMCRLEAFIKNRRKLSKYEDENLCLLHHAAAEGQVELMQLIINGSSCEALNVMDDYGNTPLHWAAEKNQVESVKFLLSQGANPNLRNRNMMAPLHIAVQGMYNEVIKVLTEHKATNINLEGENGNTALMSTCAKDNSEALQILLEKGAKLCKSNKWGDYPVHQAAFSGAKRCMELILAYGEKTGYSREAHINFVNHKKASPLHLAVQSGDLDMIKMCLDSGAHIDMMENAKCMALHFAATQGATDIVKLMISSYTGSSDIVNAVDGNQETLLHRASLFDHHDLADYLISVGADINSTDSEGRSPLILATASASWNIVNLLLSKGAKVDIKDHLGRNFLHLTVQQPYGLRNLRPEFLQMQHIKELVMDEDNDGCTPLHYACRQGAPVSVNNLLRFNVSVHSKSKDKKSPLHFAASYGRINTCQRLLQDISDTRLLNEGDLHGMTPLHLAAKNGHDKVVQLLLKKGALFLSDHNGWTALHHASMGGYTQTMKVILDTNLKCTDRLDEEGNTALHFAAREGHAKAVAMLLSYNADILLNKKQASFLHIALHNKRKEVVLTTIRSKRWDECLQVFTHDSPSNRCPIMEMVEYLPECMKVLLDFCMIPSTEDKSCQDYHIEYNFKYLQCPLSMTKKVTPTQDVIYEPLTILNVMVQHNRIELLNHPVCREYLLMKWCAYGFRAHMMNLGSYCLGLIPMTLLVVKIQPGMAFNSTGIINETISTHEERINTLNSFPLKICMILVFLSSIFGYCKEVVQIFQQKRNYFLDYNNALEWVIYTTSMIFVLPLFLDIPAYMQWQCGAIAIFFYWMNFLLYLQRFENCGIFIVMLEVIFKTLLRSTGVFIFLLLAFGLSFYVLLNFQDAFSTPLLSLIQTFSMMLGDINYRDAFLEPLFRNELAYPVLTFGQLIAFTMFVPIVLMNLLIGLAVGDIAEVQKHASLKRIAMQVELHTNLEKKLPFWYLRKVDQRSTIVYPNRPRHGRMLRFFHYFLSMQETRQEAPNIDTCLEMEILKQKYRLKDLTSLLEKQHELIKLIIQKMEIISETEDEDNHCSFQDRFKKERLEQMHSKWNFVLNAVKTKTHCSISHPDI

EC50: 64.8 ± 50.4 nM
Structure (SMILES): CCCCCC(O)C=CC=O (stereo not shown) [4-HNE]
